What was measured:
[1] = 'it is believed'; basis not stated; cited from earlier work
[2] = test system: Human corneal epithelial cells (hCEC); experiment: BrdU cell proliferation ELISA; format: cell-based
Method: (§1) Proliferation of hCEC was determined using a 5-bromo-2'-deoxyuridine (BrdU) ELISA in accordance with the manufacturers' recommendations (Merck KGaA, Darmstadt, Germany). In brief, approximately 7,000 cells were seeded onto a 96-well cell culture plate and incubated for 24h to achieve complete adherence of the cells. After 24 hours of incubation with 100 µl of corneal epithelial cell growth medium without its' supplement mix, hCECs were treated with eriocitrin and/or SCH772984 (Selleckchem, Houston, TX, USA), an inhibitor of ERK1/2 phosphorylation, both dissolved in DMSO. Following another 24 hours of incubation with BrdU labeling solution, cells were fixed and incubated with anti-BrdU antibodies according to the manufacturer's recommendations. BrdU incorporation into the DNA of hCECs was quantified by absorbance measurement at 450 nm.

[3] = WST-1 cell viability assay; format: cell-based, Human; settings: human, corneal epithelial cells, 0.5 µM, DMSO control = 100 ± 12%, mean ± SD
Method: (§2) Human corneal epithelial cells (hCEC; SCCE016; Merck Millipore, Burlington, MA, USA) were cultured in corneal epithelial cell growth medium with supplement mix (LGC Standards, Teddington, United Kingdom). Approximately 10,000 hCECs were seeded onto each well of a 96-well cell-culture dishes (NUNC, Langenselbold, Germany). After 24 hours of incubation with 100 µl of corneal epithelial cell growth medium without its' supplement mix (LGC Standards, Teddington, United Kingdom), hCECs were treated with different concentrations of eriocitrin (EC; Selleckchem, Houston, TX, USA) dissolved in dimethyl sulfoxide (DMSO; Carl Roth AG, Karlsruhe, Germany). Control groups were treated with DMSO only. Following another 72 hours of incubation, the cells were incubated with the water-soluble tetrazolium salt (WST-1; Hoffmann-La Roche AG, Basel, Switzerland) solution for 30 minutes. Substrate turnover was measured with an ELISA reader at 450 nm (Spectramax 190; Molecular Devices, Sunnyvale, CA, USA) and a reference at 690 nm.

[4] = test system: Human corneal epithelial cells (hCEC); experiment: WST-1 cell viability assay; format: cell-based; settings: any of the concentrations tested, 72 hours, compared to DMSO control; Fig. 1A
Method: as §2

[5] = test system: Human corneal epithelial cells (hCEC); experiment: Cell scratch (wound healing / migration) assay in vitro; format: cell-based; settings: 10 µM, Fig. 2
Method: To analyze hCEC migration in vitro, cells were cultured in corneal epithelial cell growth medium with supplement mix until confluence of the cells of a 6-well cell culture plate. Following an incubation period of 24 hours in cell culture medium without supplements, 5 linear scratches were performed in each well using a 200 µl pipette tip (Eppendorf AG, Hamburg, Germany). The hCECs were then incubated prospectively under treatment with eriocitrin or DMSO as a control for up to 48 hours. Reference images were acquired at the beginning of the incubation period using the phase contrast mode on an Axio Observer 7 (Carl Zeiss AG, Jena, Germany). Every 24 hours, follow-up images of different scratch sections were acquired. The size of the wound area was analyzed using a semi-automated analysis tool in ImageJ 1.53a (National Institute of Health, Bethesda, MD, USA).

[6] = test system: Human corneal epithelial cells (hCEC); experiment: Oxidative stress model (H2O2) with BrdU proliferation assay; format: cell-based; settings: 24 h, Fig. 3, read-out: cell proliferation
Method: as §1
To determine potential anti-oxidative effects of eriocitrin, hCECs were incubated and treated analogous to the above-mentioned BrdU ELISA with minor modifications. To induce oxidative stress, hydrogen peroxide (H2O2) in a concentration of 100 µM was added to the treatment groups and an additional H2O2-only group was tested. Following another incubation of the hCECs for 24 hours, the BrdU assay was further performed according to the description above.

ERK1/2 = experiment: Western blot of ERK1/2 phosphorylation in corneal epithelial cells; format: cell-based; settings: Homo sapiens, Corneal epithelial cell, 1 hour, compared to DMSO-only control, Fig. 4, read-out: pERK1/2 protein expression
Method: To analyze whether eriocitrin activates the extracellular signal-regulated kinase-1 and -2 (ERK1/2), human corneal epithelial cells were treated with 10 µM eriocitrin for 1 hour. Corneal proteins were isolated in radioimmunoprecipitation assay (RIPA) buffer. Protein concentration was measured with a bicinchoninic acid (BCA) assay according to the manufacturer's instructions (Thermo Fisher Scientific, Waltham, MA, USA). Up to 25 µg of total proteins were subjected to 8% SDS-PAGE. Following gel electrophoresis proteins were transferred onto a polyvinylidine fluoride (PVDF) membrane (Roche Holding, Basel, Switzerland) by semidry blotting. After blocking with 3% low fat milk in PBS-Tween (PBS-T) for one hour, membranes were incubated overnight with a rabbit-anti-pERK1/2 (1:1000; Cell Signaling Technology, Danvers, MA, USA) in PBS-T with 0.3% low fat milk. Alkaliphosphatase-conjugated mouse-anti-rabbit antibodies (1:1000, Jackson Immunoresearch Europe, UK) were used as secondary antibodies. Antibody hybridization was visualized using the CDP-Star substrate (Thermo Fisher) and documented with the Western Blot Reader iBright CL 1000 (Thermo Fisher). As a loading control, AP-conjugated anti-alpha-tubulin antibodies were used (1:1000, Merck). The densitometry of Western blot analyses was performed with the iBright Image software v.1.4.0 software (Thermo Fisher).

[7] = 80°C for 30 min, pH 7; cited from earlier work

In the case of `COc1cc(O)c(CC=C(C)C)c(O)c1C(=O)/C=C/c1ccc(O)cc1` [xanthohumol, 1-[2,4-Dihydroxy-6-methoxy-3-(3-methyl-but-2-enyl)-phenyl]-3-(4-hydroxyphenyl)-propenon], the first pka [1] is listed as “about 7”.

In the case of `O=C(Nc1ccc2[nH]nc(-c3ccncc3)c2c1)[C@@H]1CCN(CC(=O)N2CCN(c3ccc(-c4ncccn4)cc3)CC2)C1` [SCH772984, reference compound], the “effect on eriocitrin-enhanced proliferation of corneal epithelial cells” value ([2]; 100 nM added to 10 µM eriocitrin, 24 hours, Fig. 5) is reported as “completely blocked”.

With `C[C@@H]1O[C@@H](OC[C@H]2O[C@@H](Oc3cc(O)c4c(c3)O[C@H](c3ccc(O)c(O)c3)CC4=O)[C@H](O)[C@@H](O)[C@@H]2O)[C@H](O)[C@H](O)[C@H]1O` [eriocitrin, (2S)-3',4',5-trihydroxy-7-[α-L-rhamnopyranosyl-(1→6)-β-D-glucopyranosyloxy]flavan-4-one] the viability at 72 h, 0.5 µM [3] was 110 ± 14%, the “toxic effects on corneal epithelial cell viability” value [4] was “did not show any toxic effects” and the proliferation ([2]; 10 µM eriocitrin plus 100 nM SCH772984, 24 hours, Fig. 5) was 104 ± 9%. For the same compound, the proliferation ([2]; 10 µM, 24 hours, compared to DMSO treated controls, Fig. 5) was 129 ± 11%, the activity at 0.5 µM ([2]; Homo sapiens, HCEC, 0.5 µM, 24 hours, DMSO control = 100 ± 17%, Fig. 1B) was 118 ± 39% and the activity at 1 µM ([2]; Homo sapiens, HCEC, 1 µM, 24 hours, DMSO control = 100 ± 17%, Fig. 1B) was 126 ± 33%. It also gave an activity at 2.5 µM ([2]; Homo sapiens, HCEC, 2.5 µM, 24 hours, DMSO control = 100 ± 17%, Fig. 1B) of 127 ± 29%, an activity at 5 µM ([2]; Homo sapiens, HCEC, 5 µM, 24 hours, DMSO control = 100 ± 17%, Fig. 1B) of 143 ± 36% and an activity at 10 µM ([2]; Homo sapiens, HCEC, 10 µM, 24 hours, DMSO control = 100 ± 17%, Fig. 1B) of 162 ± 49%. For the same compound, the “scratched hCEC area, difference to DMSO-only control” value ([5]; 24 hours of incubation, p > 0.9999) was “slight difference”, the remaining wound area ([5]; 48 hours of incubation, control 71.9 ± 7.7%) was 64.5 ± 7.8% and the activity at 5 µM ([6]; 5 µM added to 100 µM H2O2, 24 hours, H2O2 control 81 ± 12%) was 113 ± 9%. For the same compound, the activity at 5 µM ([6]; 5 µM, 24 hours, without H2O2, compared to DMSO control) was 117 ± 8%, the activity at 10 µM ([6]; 10 µM added to 100 µM H2O2, 24 hours, H2O2 control 81 ± 12%) was 115 ± 18% and the activity at 10 µM ([6]; 10 µM, 24 hours, without H2O2, compared to DMSO control) was 125 ± 18%. For the same compound, the fold induction at 10 µM (ERK1/2) was 1.8 ± 0.9 and the “eriocitrin molecules remain intact” value [7] was 60%.

Source: patent EP4302767A1, “OPHTHALMIC COMPOSITION COMPRISING ERIOCITRIN” (Skeye Pharma GmbH, priority 2022, dated 2024)
